Measured values reported in ChEMBL document CHEMBL3045875, “Design, synthesis, and biological evaluation studies of novel quinazolinone derivatives as anticonvulsant agents” (Med Chem Res, 2013).

How the values were obtained:
Mus musculus [1] = experiment: Anticonvulsant activity in Swiss albino Mus musculus (mouse) assessed as protection against PTZ-induced seizures at 0.5 mmol/kg, i.p. administered 30 min prior to PTZ-challenge relative to control; assay type: functional
Mus musculus [2] = experiment: Anticonvulsant activity in Swiss albino Mus musculus (mouse) assessed as protection against Maximal electric shock-induced seizures at 0.5 mmol/kg, ip administered 30 min prior to electric shock-challenge relative to control; assay type: functional
[3] = Toxicity in ip dosed Swiss albino Mus musculus (mouse) assessed as mortality; assay type: organism-based; conditions: in vivo
Mus musculus [4] = species: Mus musculus; experiment: Protective index, ratio of TD50 to ED50 in Swiss albino Mus musculus (mouse)
[5] = Therapeutic index, ratio of LD50 to ED50 in Swiss albino Mus musculus (mouse); assay type: organism-based; conditions: in vivo, read-out: Ratio LD50/ED50
Mus musculus [6] = experiment: Anticonvulsant activity in ip dosed Swiss albino Mus musculus (mouse) assessed as protection against PTZ-induced seizures administered 30 min prior to PTZ-challenge; assay type: functional
[7] = Neurotoxicity in ip dosed Swiss albino Mus musculus (mouse) after 4 hr by rotarod test; assay type: toxicity, organism-based; conditions: in vivo
Mus musculus [8] = experiment: Anticonvulsant activity in Swiss albino Mus musculus (mouse) assessed as protection against PTZ-induced seizures at 0.8 mmol/kg, i.p. administered 30 min prior to PTZ-challenge relative to control; assay type: functional
Mus musculus [9] = experiment: Anticonvulsant activity in Swiss albino Mus musculus (mouse) assessed as protection against Maximal electric shock-induced seizures at 0.8 mmol/kg, ip administered 30 min prior to electric shock-challenge relative to control; assay type: functional
Mus musculus [10] = experiment: Anticonvulsant activity in Swiss albino Mus musculus (mouse) assessed as protection against Maximal electric shock-induced seizures at 1.8 mmol/kg, ip administered 30 min prior to electric shock-challenge relative to control; assay type: functional
Mus musculus [11] = experiment: Anticonvulsant activity in Swiss albino Mus musculus (mouse) assessed as protection against PTZ-induced seizures at 1.8 mmol/kg, i.p. administered 30 min prior to PTZ-challenge relative to control; assay type: functional

| Compound | Activity (Mus musculus [1]) | Activity (Mus musculus [2]) | ED50 (Mus musculus [6]) | TD50 at 4 h [7] | other results |
| --- | --- | --- | --- | --- | --- |
| COc1ccc(Cn2c(C)nc3c(I)cc(I)cc3c2=O)cc1 | 66% | 33% |  |  |  |
| Cc1ccc(Cn2c(C)nc3c(I)cc(I)cc3c2=O)cc1 | 50% | 33% |  |  |  |
| Cc1nc2c(I)cc(I)cc2c(=O)n1Cc1cccc(C(F)(F)F)c1 | 50% | 33% |  |  |  |
| Cc1nc2c(I)cc(I)cc2c(=O)n1Cc1cccc(Cl)c1 | 100% | 66% |  |  |  |
| Cc1nc2c(I)cc(I)cc2c(=O)n1Cc1ccc(Cl)c(Cl)c1 | 66% | 66% |  |  |  |
| Cc1nc2ccccc2c(=O)n1Cc1ccc(Br)cc1 | 66% | 66% |  |  |  |
| Cc1nc2ccc(I)cc2c(=O)n1Cc1ccc(Br)cc1 | 66% | 66% |  |  |  |
| Cc1nc2c(I)cc(I)cc2c(=O)n1-c1ccc(Br)cc1 | 100% | 66% |  |  |  |
| Cc1nc2c(I)cc(I)cc2c(=O)n1Cc1ccccc1 | 66% | 50% |  |  |  |
| Cc1nc2c(I)cc(I)cc2c(=O)n1Cc1ccc(Cl)cc1 | 100% | 100% | 150 mg/kg | 280 mg/kg | LD50 [3]: 600 mg/kg; Ratio TD50/ED50 (Mus musculus [4]): 1.87; selectivity ratio [5]: 4 |
| Cc1nc2c(I)cc(I)cc2c(=O)n1Cc1ccc(F)cc1 | 100% | 100% | 160 mg/kg | 360 mg/kg | LD50 [3]: 420 mg/kg; Ratio TD50/ED50 (Mus musculus [4]): 2.25; selectivity ratio [5]: 2.62 |
| Cc1nc2c(I)cc(I)cc2c(=O)n1Cc1ccc(I)cc1 | 66% | 66% |  |  |  |
| Cc1nc2c(I)cc(I)cc2c(=O)n1Cc1ccc(Br)cc1 | 100% | 100% | 138 mg/kg | 330 mg/kg | LD50 [3]: 565 mg/kg; Ratio TD50/ED50 (Mus musculus [4]): 2.39; selectivity ratio [5]: 4.09 |
| Cc1nc2c(I)cc(I)cc2c(=O)n1Cc1cccc([N+](=O)[O-])c1 | 100% | 66% |  |  |  |
| Cc1ccccc1-n1c(C)nc2ccccc2c1=O [METHAQUALONE] |  |  | 200 mg/kg | 400 mg/kg | Ratio TD50/ED50 (Mus musculus [4]): 2; Activity (Mus musculus [8]): 100%; Activity (Mus musculus [9]): 100% |
| CCCC(CCC)C(=O)[O-].[Na+] [VALPROATE SODIUM] |  |  | 300 mg/kg | 450 mg/kg | Activity (Mus musculus [10]): 100%; Activity (Mus musculus [11]): 100% |
